According to the OligoGym collection:
Oligonucleotides are given in HELM: sugar(base)linkage, 5' to 3'; d 2'-deoxyribose, r ribose, m 2'-O-methylribose, p phosphate. ss, as = sense and antisense strand

Molecular target: Mmp7 (rat)
Experiment: reporter assay of Huesken 2005
Conditions: siRNA
Further: test concentration or dose not given here.

Substance	normalised inhibition (eCFP-eYFP dual reporter) [%]
RNA1{r(U)p.r(C)p.r(U)p.r(A)p.r(A)p.r(A)p.r(A)p.r(C)p.r(A)p.r(A)p.r(A)p.r(G)p.r(A)p.r(A)p.r(G)p.r(G)p.r(C)p.r(C)p.r(A)p.d(T)p.d(T)}|RNA2{r(U)p.r(G)p.r(G)p.r(C)p.r(C)p.r(U)p.r(U)p.r(C)p.r(U)p.r(U)p.r(U)p.r(G)p.r(U)p.r(U)p.r(U)p.r(U)p.r(A)p.r(G)p.r(A)p.d(G)p.d(T)}$$$RNA1{StrandType:ss}|RNA2{StrandType:as}$	95.7
RNA1{r(U)p.r(C)p.r(U)p.r(G)p.r(U)p.r(G)p.r(A)p.r(U)p.r(G)p.r(U)p.r(A)p.r(C)p.r(C)p.r(C)p.r(U)p.r(A)p.r(C)p.r(C)p.r(U)p.d(T)p.d(T)}|RNA2{r(A)p.r(G)p.r(G)p.r(U)p.r(A)p.r(G)p.r(G)p.r(G)p.r(U)p.r(A)p.r(C)p.r(A)p.r(U)p.r(C)p.r(A)p.r(C)p.r(A)p.r(G)p.r(A)p.d(A)p.d(C)}$$$RNA1{StrandType:ss}|RNA2{StrandType:as}$	55.2
RNA1{r(U)p.r(C)p.r(U)p.r(G)p.r(U)p.r(U)p.r(C)p.r(C)p.r(C)p.r(A)p.r(G)p.r(U)p.r(U)p.r(C)p.r(U)p.r(G)p.r(U)p.r(G)p.r(A)p.d(T)p.d(T)}|RNA2{r(U)p.r(C)p.r(A)p.r(C)p.r(A)p.r(G)p.r(A)p.r(A)p.r(C)p.r(U)p.r(G)p.r(G)p.r(G)p.r(A)p.r(A)p.r(C)p.r(A)p.r(G)p.r(A)p.d(A)p.d(G)}$$$RNA1{StrandType:ss}|RNA2{StrandType:as}$	99.6
RNA1{r(U)p.r(G)p.r(A)p.r(A)p.r(C)p.r(U)p.r(U)p.r(C)p.r(C)p.r(U)p.r(G)p.r(U)p.r(U)p.r(U)p.r(G)p.r(U)p.r(U)p.r(G)p.r(C)p.d(T)p.d(T)}|RNA2{r(G)p.r(C)p.r(A)p.r(A)p.r(C)p.r(A)p.r(A)p.r(A)p.r(C)p.r(A)p.r(G)p.r(G)p.r(A)p.r(A)p.r(G)p.r(U)p.r(U)p.r(C)p.r(A)p.d(C)p.d(G)}$$$RNA1{StrandType:ss}|RNA2{StrandType:as}$	33.7
RNA1{r(U)p.r(G)p.r(A)p.r(G)p.r(G)p.r(G)p.r(A)p.r(A)p.r(A)p.r(U)p.r(G)p.r(C)p.r(A)p.r(G)p.r(A)p.r(A)p.r(G)p.r(U)p.r(U)p.d(T)p.d(T)}|RNA2{r(A)p.r(A)p.r(C)p.r(U)p.r(U)p.r(C)p.r(U)p.r(G)p.r(C)p.r(A)p.r(U)p.r(U)p.r(U)p.r(C)p.r(C)p.r(C)p.r(U)p.r(C)p.r(A)p.d(G)p.d(T)}$$$RNA1{StrandType:ss}|RNA2{StrandType:as}$	104
RNA1{r(U)p.r(G)p.r(A)p.r(G)p.r(U)p.r(A)p.r(C)p.r(U)p.r(G)p.r(G)p.r(A)p.r(C)p.r(G)p.r(G)p.r(A)p.r(U)p.r(G)p.r(G)p.r(U)p.d(T)p.d(T)}|RNA2{r(A)p.r(C)p.r(C)p.r(A)p.r(U)p.r(C)p.r(C)p.r(G)p.r(U)p.r(C)p.r(C)p.r(A)p.r(G)p.r(U)p.r(A)p.r(C)p.r(U)p.r(C)p.r(A)p.d(T)p.d(C)}$$$RNA1{StrandType:ss}|RNA2{StrandType:as}$	63.1
RNA1{r(U)p.r(G)p.r(C)p.r(A)p.r(G)p.r(A)p.r(A)p.r(G)p.r(C)p.r(C)p.r(C)p.r(A)p.r(G)p.r(G)p.r(U)p.r(G)p.r(U)p.r(G)p.r(G)p.d(T)p.d(T)}|RNA2{r(C)p.r(C)p.r(A)p.r(C)p.r(A)p.r(C)p.r(C)p.r(U)p.r(G)p.r(G)p.r(G)p.r(C)p.r(U)p.r(U)p.r(C)p.r(U)p.r(G)p.r(C)p.r(A)p.d(T)p.d(T)}$$$RNA1{StrandType:ss}|RNA2{StrandType:as}$	61.3
RNA1{r(U)p.r(G)p.r(C)p.r(A)p.r(G)p.r(A)p.r(A)p.r(U)p.r(U)p.r(C)p.r(U)p.r(C)p.r(A)p.r(C)p.r(U)p.r(A)p.r(A)p.r(U)p.r(G)p.d(T)p.d(T)}|RNA2{r(C)p.r(A)p.r(U)p.r(U)p.r(A)p.r(G)p.r(U)p.r(G)p.r(A)p.r(G)p.r(A)p.r(A)p.r(U)p.r(U)p.r(C)p.r(U)p.r(G)p.r(C)p.r(A)p.d(A)p.d(C)}$$$RNA1{StrandType:ss}|RNA2{StrandType:as}$	72.9
RNA1{r(U)p.r(G)p.r(C)p.r(C)p.r(U)p.r(U)p.r(U)p.r(G)p.r(C)p.r(A)p.r(C)p.r(C)p.r(G)p.r(G)p.r(G)p.r(G)p.r(C)p.r(C)p.r(A)p.d(T)p.d(T)}|RNA2{r(U)p.r(G)p.r(G)p.r(C)p.r(C)p.r(C)p.r(C)p.r(G)p.r(G)p.r(U)p.r(G)p.r(C)p.r(A)p.r(A)p.r(A)p.r(G)p.r(G)p.r(C)p.r(A)p.d(T)p.d(G)}$$$RNA1{StrandType:ss}|RNA2{StrandType:as}$	59.1
RNA1{r(U)p.r(G)p.r(G)p.r(A)p.r(C)p.r(G)p.r(G)p.r(A)p.r(U)p.r(G)p.r(G)p.r(U)p.r(G)p.r(A)p.r(G)p.r(G)p.r(A)p.r(C)p.r(U)p.d(T)p.d(T)}|RNA2{r(A)p.r(G)p.r(U)p.r(C)p.r(C)p.r(U)p.r(C)p.r(A)p.r(C)p.r(C)p.r(A)p.r(U)p.r(C)p.r(C)p.r(G)p.r(U)p.r(C)p.r(C)p.r(A)p.d(G)p.d(T)}$$$RNA1{StrandType:ss}|RNA2{StrandType:as}$	52.5
RNA1{r(U)p.r(G)p.r(G)p.r(A)p.r(G)p.r(U)p.r(G)p.r(C)p.r(C)p.r(A)p.r(G)p.r(A)p.r(U)p.r(G)p.r(U)p.r(U)p.r(G)p.r(C)p.r(A)p.d(T)p.d(T)}|RNA2{r(U)p.r(G)p.r(C)p.r(A)p.r(A)p.r(C)p.r(A)p.r(U)p.r(C)p.r(U)p.r(G)p.r(G)p.r(C)p.r(A)p.r(C)p.r(U)p.r(C)p.r(C)p.r(A)p.d(C)p.d(A)}$$$RNA1{StrandType:ss}|RNA2{StrandType:as}$	91.3
RNA1{r(U)p.r(G)p.r(G)p.r(C)p.r(C)p.r(C)p.r(U)p.r(G)p.r(C)p.r(C)p.r(A)p.r(C)p.r(U)p.r(G)p.r(U)p.r(C)p.r(C)p.r(C)p.r(A)p.d(T)p.d(T)}|RNA2{r(U)p.r(G)p.r(G)p.r(G)p.r(A)p.r(C)p.r(A)p.r(G)p.r(U)p.r(G)p.r(G)p.r(C)p.r(A)p.r(G)p.r(G)p.r(G)p.r(C)p.r(C)p.r(A)p.d(G)p.d(G)}$$$RNA1{StrandType:ss}|RNA2{StrandType:as}$	93.6
RNA1{r(U)p.r(G)p.r(G)p.r(G)p.r(A)p.r(A)p.r(C)p.r(A)p.r(G)p.r(G)p.r(C)p.r(G)p.r(C)p.r(A)p.r(G)p.r(A)p.r(A)p.r(U)p.r(U)p.d(T)p.d(T)}|RNA2{r(A)p.r(A)p.r(U)p.r(U)p.r(C)p.r(U)p.r(G)p.r(C)p.r(G)p.r(C)p.r(C)p.r(U)p.r(G)p.r(U)p.r(U)p.r(C)p.r(C)p.r(C)p.r(A)p.d(C)p.d(T)}$$$RNA1{StrandType:ss}|RNA2{StrandType:as}$	46.8
RNA1{r(U)p.r(G)p.r(G)p.r(U)p.r(G)p.r(A)p.r(G)p.r(G)p.r(A)p.r(C)p.r(U)p.r(C)p.r(A)p.r(G)p.r(G)p.r(C)p.r(G)p.r(U)p.r(G)p.d(T)p.d(T)}|RNA2{r(C)p.r(A)p.r(C)p.r(G)p.r(C)p.r(C)p.r(U)p.r(G)p.r(A)p.r(G)p.r(U)p.r(C)p.r(C)p.r(U)p.r(C)p.r(A)p.r(C)p.r(C)p.r(A)p.d(T)p.d(C)}$$$RNA1{StrandType:ss}|RNA2{StrandType:as}$	69.8
RNA1{r(U)p.r(G)p.r(U)p.r(G)p.r(A)p.r(U)p.r(G)p.r(U)p.r(A)p.r(C)p.r(C)p.r(C)p.r(U)p.r(A)p.r(C)p.r(C)p.r(U)p.r(A)p.r(U)p.d(T)p.d(T)}|RNA2{r(A)p.r(U)p.r(A)p.r(G)p.r(G)p.r(U)p.r(A)p.r(G)p.r(G)p.r(G)p.r(U)p.r(A)p.r(C)p.r(A)p.r(U)p.r(C)p.r(A)p.r(C)p.r(A)p.d(G)p.d(A)}$$$RNA1{StrandType:ss}|RNA2{StrandType:as}$	107
RNA1{r(U)p.r(G)p.r(U)p.r(U)p.r(U)p.r(G)p.r(U)p.r(U)p.r(G)p.r(C)p.r(C)p.r(A)p.r(C)p.r(U)p.r(C)p.r(A)p.r(U)p.r(G)p.r(A)p.d(T)p.d(T)}|RNA2{r(U)p.r(C)p.r(A)p.r(U)p.r(G)p.r(A)p.r(G)p.r(U)p.r(G)p.r(G)p.r(C)p.r(A)p.r(A)p.r(C)p.r(A)p.r(A)p.r(A)p.r(C)p.r(A)p.d(G)p.d(G)}$$$RNA1{StrandType:ss}|RNA2{StrandType:as}$	105
RNA1{r(U)p.r(U)p.r(A)p.r(C)p.r(C)p.r(U)p.r(U)p.r(C)p.r(A)p.r(C)p.r(G)p.r(A)p.r(C)p.r(U)p.r(C)p.r(U)p.r(A)p.r(A)p.r(A)p.d(T)p.d(T)}|RNA2{r(U)p.r(U)p.r(U)p.r(A)p.r(G)p.r(A)p.r(G)p.r(U)p.r(C)p.r(G)p.r(U)p.r(G)p.r(A)p.r(A)p.r(G)p.r(G)p.r(U)p.r(A)p.r(A)p.d(A)p.d(A)}$$$RNA1{StrandType:ss}|RNA2{StrandType:as}$	131
RNA1{r(U)p.r(U)p.r(C)p.r(A)p.r(G)p.r(A)p.r(A)p.r(G)p.r(A)p.r(C)p.r(U)p.r(U)p.r(C)p.r(A)p.r(G)p.r(U)p.r(C)p.r(U)p.r(U)p.d(T)p.d(T)}|RNA2{r(A)p.r(A)p.r(G)p.r(A)p.r(C)p.r(U)p.r(G)p.r(A)p.r(A)p.r(G)p.r(U)p.r(C)p.r(U)p.r(U)p.r(C)p.r(U)p.r(G)p.r(A)p.r(A)p.d(T)p.d(G)}$$$RNA1{StrandType:ss}|RNA2{StrandType:as}$	92.5
RNA1{r(U)p.r(U)p.r(C)p.r(C)p.r(U)p.r(G)p.r(U)p.r(U)p.r(U)p.r(G)p.r(U)p.r(U)p.r(G)p.r(C)p.r(C)p.r(A)p.r(C)p.r(U)p.r(C)p.d(T)p.d(T)}|RNA2{r(G)p.r(A)p.r(G)p.r(U)p.r(G)p.r(G)p.r(C)p.r(A)p.r(A)p.r(C)p.r(A)p.r(A)p.r(A)p.r(C)p.r(A)p.r(G)p.r(G)p.r(A)p.r(A)p.d(G)p.d(T)}$$$RNA1{StrandType:ss}|RNA2{StrandType:as}$	37.6
RNA1{r(U)p.r(U)p.r(C)p.r(G)p.r(C)p.r(A)p.r(A)p.r(G)p.r(G)p.r(G)p.r(G)p.r(A)p.r(G)p.r(A)p.r(U)p.r(C)p.r(A)p.r(C)p.r(G)p.d(T)p.d(T)}|RNA2{r(C)p.r(G)p.r(U)p.r(G)p.r(A)p.r(U)p.r(C)p.r(U)p.r(C)p.r(C)p.r(C)p.r(C)p.r(U)p.r(U)p.r(G)p.r(C)p.r(G)p.r(A)p.r(A)p.d(G)p.d(C)}$$$RNA1{StrandType:ss}|RNA2{StrandType:as}$	26.8
